# Reference: US20060116410A1, “4-Aminomethyl benzamidine derivatives” (priority 2004, published 2006)
# Where a name gives a salt, the structure may show the parent alone.
# Target: T1, factor VIIa/tissue factor complex (Homo sapiens, UniProt P08709)
# T1 construct: 9 nM of soluble factor VIIa
# Assay: Inhibition of amidolytic activity of factor VIIa/tissue factor complex, chromogenic substrate Chromozym-tPA
# Format: biochemical
# Settings: 26 nM tissue factor, 9 nM soluble factor VIIa, room temperature, pH 7.5
# Protocol: Measurements were carried out by an automated robotic assay on microtitre plates at room temperature. To this end, 100 μl of a solution of 26 nM of tissue factor, 9 nM of soluble factor VIIa and 8 mM of calcium chloride were added to 25 μl of a solution of the inhibitor in a buffer [pH 7.5, 100 mM, comprising 0.14M NaCl, 0.1M N-(2-hydroxyethyl)piperazine-N′-(2-ethanesulphonic acid) (HEPES), 0.5 mg/l of fatty-acid-free BSA (bovine serum albumin) and 0.05% NaN3] in each well of the plate. After an incubation time of 15 minutes the reaction was started by the addition of 50 μl of chromogenic substrate Chromozym-tPA (3.5 mM, MeSO2-D-Phe-Gly-Arg-paranitroamlide) and the hydrolysis of the substrate was followed spectrophotometrically on a kinetic microtitre plate reader over 10 minutes. Using the plot of the inhibition curves, the Ki values were determined according to the method described in Biochem. J. 55, 1953, 170-171.
# T1 sequence (P08709 213-466 limits assumed): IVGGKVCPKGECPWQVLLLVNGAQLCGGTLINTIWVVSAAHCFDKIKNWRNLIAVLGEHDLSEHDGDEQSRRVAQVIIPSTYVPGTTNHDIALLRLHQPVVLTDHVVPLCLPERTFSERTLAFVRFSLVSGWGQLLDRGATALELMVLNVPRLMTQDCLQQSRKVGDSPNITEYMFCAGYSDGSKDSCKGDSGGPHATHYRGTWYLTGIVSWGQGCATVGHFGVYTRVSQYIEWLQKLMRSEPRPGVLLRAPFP
# T1 sequence (P08709 61-212 limits assumed): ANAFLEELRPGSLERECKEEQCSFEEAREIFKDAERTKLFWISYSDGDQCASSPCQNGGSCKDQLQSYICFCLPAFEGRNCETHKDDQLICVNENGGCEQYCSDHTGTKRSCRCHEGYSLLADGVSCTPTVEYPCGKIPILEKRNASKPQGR
# T1 sequence (P13726 33-295 partner): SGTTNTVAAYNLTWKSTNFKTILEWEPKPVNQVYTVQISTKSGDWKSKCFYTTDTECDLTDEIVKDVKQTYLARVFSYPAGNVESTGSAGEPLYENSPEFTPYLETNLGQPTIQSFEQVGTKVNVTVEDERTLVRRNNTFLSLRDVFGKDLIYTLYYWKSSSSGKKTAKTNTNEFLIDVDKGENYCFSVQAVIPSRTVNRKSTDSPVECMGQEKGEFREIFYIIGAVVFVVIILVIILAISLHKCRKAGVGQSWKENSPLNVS
row,SMILES,Ki
1,"CNC(=O)COc1cc(C(=N)N)ccc1CNC(=O)c1cc(Cl)cc(Cl)c1 [Example 18.2, N-(4-carbamimidoyl-2-methylcarbamoylmethoxy-benzyl)-3,5-dichloro-benzamide hydrochloride]",62 nM
2,"CCOC(=O)CNc1cc(C(=N)N)ccc1CNC(=O)c1cccc(C)c1 [Example 24.1, {5-carbamimidoyl-2-[(3-methyl-benzoylamino)-methyl]-phenylamino}-acetic acid ethyl ester hydrochloride]",81 nM
3,"Cc1cc(C(=O)NCc2ccc(C(=N)N)cc2OCCNC(=O)c2ccccc2F)ccc1F [Example 42.2, N-{4-carbamimidoyl-2-[2-(2-fluoro-benzoylamino)-ethoxy]-benzyl}-4-fluoro-3-methyl-benzamide hydrochloride]",51 nM
